According to paper PMC3798429, “Exploring the Trypanosoma brucei Hsp83 Potential as a Target for Structure Guided Drug Design” (PLoS Neglected Tropical Diseases, 2013):
Where “and” joins values, the source holds several entries; their conditions need not be identical. Identical values can stand only once. Like-named read-outs stand apart in the source and are kept apart here. Marks after values point to notes of the source that are not given here.

Assays:
TbHsp83 NTD [1] = target: T1, TbHsp83 NTD (Trypanosoma brucei brucei, UniProt P12861); format: binding; conditions: TbHsp83 NTD, inhibitor 25 µM, shifts above 2°C considered significant
T1 sequence (P12861 1-213): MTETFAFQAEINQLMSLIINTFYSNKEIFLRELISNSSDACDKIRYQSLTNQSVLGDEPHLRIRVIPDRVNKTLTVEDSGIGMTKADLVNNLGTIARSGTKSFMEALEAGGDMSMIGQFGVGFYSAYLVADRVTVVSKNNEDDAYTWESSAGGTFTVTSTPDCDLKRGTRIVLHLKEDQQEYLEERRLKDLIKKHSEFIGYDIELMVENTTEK
Description: (§1) DSF screening was carried out using a LightCycler 480 Real Time PCR System (Roche Applied Science, Quebec, Canada). The NTDs from TbHsp83 as well as human Hsp90s α and β were buffered in 100 mM hepes pH 7.5, 150 mM NaCl and assayed in a 384-well format. The final concentration of the protein sample was optimized between 0.05 and 0.2 mg/ml for each NTD (concentration selected based on pre-testing results to avoid saturation of the fluorescence detector). […] The recorded fluorescence reads were fitted to the Boltzmann sigmoid function using Bioactive software (Harbinger Biotechnology and Engineering Corp., Ontario, Canada). The inflection point of each fitted curve is defined as the melting temperature (T m). […] Thermal shifts above 2°C were considered significant.

Human Hsp90β [2] = tested on: T2, Human Hsp90β; assay: Differential scanning fluorimetry (DSF) thermal shift, human Hsp90β NTD; format: binding; conditions: inhibitor 25 µM
T2 construct: The NTDs from TbHsp83 as well as human Hsp90s α and β
Description: as §1

Human Hsp90β [3] = target: T2, Human Hsp90β; conditions: read-out: K d (previous ITC measurements); cited from earlier work
Human TRAP-1 = conditions: read-out: K d (previous ITC measurements); cited from earlier work
Human Hsp90α = tested on: T3, Human Hsp90α; assay: Differential scanning fluorimetry (DSF) thermal shift, human Hsp90α NTD; format: binding; conditions: inhibitor 25 µM
T3 construct: The NTDs from TbHsp83 as well as human Hsp90s α and β
Description: as §1

Yeast Hsp83 = conditions: read-out: K d (previous ITC measurements); cited from earlier work
TbHsp83 NTD [4] = target: T1, TbHsp83 NTD; assay: biochemical; format: binding
T. brucei 427 = assay: Parasite growth inhibition assay; format: cell-based; conditions: Trypanosoma brucei
Description: Assay conditions for T. brucei 427 cell based assay were followed as previously reported in the literature.
Several of the compounds characterized using DSF and ITC assays were evaluated for their ability to kill T. brucei in a continuous in vitro culture system.

TbHsp83 NTD [5] = format: binding; conditions: DSF comparison of TbHsp83, Hsp90α and Hsp90β
Description: as §1

Trypanosoma brucei = tested on: Trypanosoma brucei; design: method as in PMID 23630365; conditions: cited from earlier work
Plasmodium = tested on: Plasmodium; design: method as in PMID 12584193; conditions: cited from earlier work
[6] = ITC, 20°C, TbHsp83 NTD, read-out: K d
[7] = blood stream stage T. brucei 427, in vitro culture, read-out: EC50

Molecule: Nc1ncnc2c1ncn2[C@@H]1O[C@H](COP(=O)(O)OP(=O)(O)O)[C@@H](O)[C@H]1O [ADP]
- ΔT m (TbHsp83 NTD [1]): 0.1 °C
- ΔT m (Human Hsp90β [2]): 0.5^b °C
- Kd (Human Hsp90β [3]): 15000 nM
- Kd (Human TRAP-1): 35000 nM
- ΔT m (Human Hsp90α): 0.3^a °C

Molecule: Nc1ncnc2c1ncn2[C@@H]1O[C@H](COP(=O)(O)OP(=O)(O)NP(=O)(O)O)[C@@H](O)[C@H]1O [AMPPNP]
- ΔT m (TbHsp83 NTD [1]): 0.3 °C
- Kd (Human Hsp90β [3]): 141000 nM
- Kd (Yeast Hsp83): 111000 nM

Molecule: Oc1cc(O)c(-c2noc3ccc(NCCN4CCOCC4)cc23)cc1Cl [CAY10607]
- ΔT m (TbHsp83 NTD [1]): 13.3 °C
- ΔT m (Human Hsp90β [2]): 12.1 °C
- Kd (TbHsp83 NTD [4]; [6]): 10 nM
- ΔT m (Human Hsp90α): 15.3 °C

Molecule: CCc1cc(-c2n[nH]c(C)c2-c2ccc3c(c2)OCCO3)c(O)cc1O [CCT018159]
- ΔT m (TbHsp83 NTD [1]): 8.01 °C
- ΔT m (Human Hsp90β [2]): 7.5 °C
- Kd (TbHsp83 NTD [4]; [6]): 4980 nM
- ΔT m (Human Hsp90α): 12.1 °C

Molecule: COc1c(C)cnc(Cn2cnc3c(Cl)nc(N)nc32)c1C [Compound 1, 6-chloro-9-(4-methoxy-3,-dimethylpyridin-2-ylmethyl)-9H-purin-2-ylamine]
- ΔT m (TbHsp83 NTD [1]): 10.5 °C
- ΔT m (Human Hsp90β [2]): 8.7 °C
- Kd (TbHsp83 NTD [4]; K d, ITC, 20°C, TbHsp83 NTD): 9 nM
- EC50 (T. brucei 427; [7]): 310 nM

Molecule: CCC(C)n1c(Cc2cc(OC)ccc2OC)nc2c(N)nc(C)nc21 (stereo not shown) [Compound 2, 9-(sec-butyl)-8-(2,5-dimethoxybenzyl)-2-methyl-9H-purin-6-amine]
- ΔT m (TbHsp83 NTD [1]): 0.8 °C
- ΔT m (TbHsp83 NTD [1]; listed as compound 2): non-significant
- ΔT m (Human Hsp90β [2]): −0.5 °C
- K d (TbHsp83 NTD [4]; ITC, 20°C, TbHsp83 NTD): lowest affinity measured by ITC
- Kd (TbHsp83 NTD [4]; [6]): 9300 nM and 9260 nM
- EC50 (T. brucei 427; [7]): 13000 nM
- ΔT m (Human Hsp90α): 1.2 °C

Molecule: CCNC(=O)c1cc2c(-c3cc(OCCN(CC)CC)c(Cl)cc3Cl)nc(N)nc2s1 [Compound 3, 2-amino-4-[2,4-dichloro-5-(2-diethylaminoethoxy)phenyl]thiopheno[2,3-d]pyrimidine-6-carboxylic acid ethylamide]
- ΔT m (TbHsp83 NTD [1]): 12.7 °C
- ΔT m (Human Hsp90β [2]): 12.9 °C
- Kd (TbHsp83 NTD [4]; [6]): 26 nM
- EC50 (T. brucei 427): 210 nM
- ΔT m (Human Hsp90α): 14.7 °C

Molecule: CC1(C)CC(=O)c2c(C(F)(F)F)nn(-c3ccc(C(N)=O)c(N[C@H]4CC[C@H](O)CC4)c3)c2C1 [Compound 4, 4-[6,6-dimethyl-4-oxo-3-(trifluoromethyl)-4,5,6,7-tetrahydro-1H-indazol-1-yl]-2-[(trans-4-hydroxycyclohexyl)amino]benzamide]
- ΔT m (TbHsp83 NTD [1]): 15.5 °C
- Kd (TbHsp83 NTD [4]; [6]): 3 nM
- Kd (TbHsp83 NTD [4]; ITC, read-out: K d): 2.8 nM
- EC50 (T. brucei 427; [7]): 100 nM

Molecule: CSCCNc1cc(-n2nc(C(F)(F)F)c3c2CC(C)(C)CC3=O)ccc1C(N)=O [Compound 5, 4-(6,6-dimethyl-4-oxo-3-(trifluoromethyl)-4,5,6,7-tetrahydro-1H-indazol-1-yl)-2-((2-(methylthio)ethyl)amino)benzamide]
- binding preference TbHsp83 vs human Hsp90 (TbHsp83 NTD [5]): preferentially binds TbHsp83
- binding preference TbHsp83 vs human Hsp90 (TbHsp83 NTD [5]; listed as compound 5): markedly stronger binding to TbHsp83
- ΔT m (TbHsp83 NTD [1]): 12.03 °C
- ΔT m (Human Hsp90β [2]): 0.4 °C
- Kd (TbHsp83 NTD [4]; [6]): 794 nM
- EC50 (T. brucei 427; [7]): 130 nM
- ΔT m (Human Hsp90α): 2.3 °C

Molecule: CC(=O)c1ccc(N2C3CCC2CC(NC(=O)c2ccc(C(N)=O)c(NC4CCC(O)CC4)c2)C3)nc1 (stereo not drawn) [Compound 6, N4-[8-(5-acetylpyridin-2-yl)-8-azabicyclo[3.2.1]oct-3-endo-yl]-2-[(trans-4-hydroxycyclohexyl)amino]benzene-1,4-dicarboxamide]
- ΔT m (TbHsp83 NTD [1]): 10.4 °C
- ΔT m (Human Hsp90β [2]): 4.9 °C
- EC50 (T. brucei 427; [7]): 220 nM
- ΔT m (Human Hsp90α): 8.5 °C

Molecule: C=CCNC1=C2C[C@@H](C)C[C@H](OC)[C@H](O)[C@@H](C)/C=C(\C)[C@H](OC(N)=O)[C@@H](OC)/C=C\C=C(/C)C(=O)NC(=CC1=O)C2=O [Compound 17-AAG-GA, 17-AAG-GA]
- ΔT m (TbHsp83 NTD [1]): 10.7 °C
- ΔT m (Human Hsp90β [2]): 1.6 °C
- EC50 (Trypanosoma brucei): 38 nM
- ΔT m (Human Hsp90α): 3.1 °C

Molecule: CO[C@H]1/C=C\C=C(/C)C(=O)NC2=CC(=O)C(NCCN3CCCC3)=C(C[C@@H](C)C[C@H](OC)[C@H](O)[C@@H](C)/C=C(\C)[C@@H]1OC(N)=O)C2=O [Compound 17-AEP-GA, 17-AEP-GA]
- ΔT m (TbHsp83 NTD [1]): 13.8 °C
- ΔT m (Human Hsp90β [2]): 4.2 °C
- Kd (TbHsp83 NTD [4]; [6]): 714 nM
- ΔT m (Human Hsp90α): 5.1 °C

Molecule: CO[C@H]1/C=C\C=C(/C)C(=O)NC2=CC(=O)C(NCCN(C)C)=C(C[C@@H](C)C[C@H](OC)[C@H](O)[C@@H](C)/C=C(\C)[C@@H]1OC(N)=O)C2=O [Compound 17-DAMG-GA, 17-DAMG-GA]
- ΔT m (TbHsp83 NTD [1]): 11.7 °C
- ΔT m (Human Hsp90β [2]): 3.9 °C
- EC50 (Trypanosoma brucei): 3 nM
- Kd (Human Hsp90β [3]): 350 nM
- ΔT m (Human Hsp90α): 5.5 °C

Molecule: COC1=C2C[C@@H](C)C[C@H](OC)[C@H](O)[C@@H](C)/C=C(\C)[C@H](OC(N)=O)[C@@H](OC)/C=C\C=C(/C)C(=O)NC(=CC1=O)C2=O [Geldanamycin]
- ΔT m (TbHsp83 NTD [1]): 14.8 °C
- Kd (TbHsp83 NTD [4]; K d, ITC, 20°C, TbHsp83 NTD): 1000 nM
- concentration inhibiting parasite growth (Plasmodium): sub-micromolar
- EC50 (Trypanosoma brucei): 13 nM
- Kd (Yeast Hsp83): 2900 nM

Molecule: CO[C@H]1[C@@H](OC)C[C@H](C)[C@@H](OC)C2=CC(=O)C=C(NC(=O)/C(C)=C/C=C\[C@H](C)[C@@H](OC(N)=O)/C(C)=C/[C@@H]1C)C2=O [Macbecin I]
- binding preference TbHsp83 vs human Hsp90 (TbHsp83 NTD [5]): markedly stronger binding to TbHsp83
- ΔT m (TbHsp83 NTD [1]): 16.9 °C
- ΔT m (Human Hsp90β [2]): 8.6 °C
- fold higher affinity of T. brucei Hsp83 compared to K d reported for yeast counterpart (TbHsp83 NTD [4]; ITC K d vs yeast value of ref 45): 2.5 fold
- Kd (TbHsp83 NTD [4]; K d, ITC, 20°C, TbHsp83 NTD): 93 nM
- Kd (Yeast Hsp83): 240 nM
- ΔT m (Human Hsp90α): 10.2 °C

Molecule: CCNC(=O)c1noc(-c2cc(C(C)C)c(O)cc2O)c1-c1ccc(CN2CCOCC2)cc1 [NVP-AUY922]
- binding preference TbHsp83 vs human Hsp90 (TbHsp83 NTD [5]): stronger affinity for human Hsp90
- ΔT m (TbHsp83 NTD [1]): 18.5 °C
- ΔT m (Human Hsp90β [2]): 19.6 °C
- Kd (TbHsp83 NTD [4]; [6]): 3 nM
- ΔT m (Human Hsp90α): 22.3 °C

Molecule: C[C@@H]1C[C@H]2O[C@@H]2/C=C\C=C\C(=O)Cc2c(Cl)c(O)cc(O)c2C(=O)O1 [Radicicol]
- binding preference TbHsp83 vs human Hsp90 (TbHsp83 NTD [5]): stronger affinity for human Hsp90
- ΔT m (TbHsp83 NTD [1]): 6.5 °C
- ΔT m (Human Hsp90β [2]): 15.6 °C
- EC50 (Trypanosoma brucei): 70 nM
- Kd (Human TRAP-1): 25 nM
- Kd (Yeast Hsp83): 16 nM
- ΔT m (Human Hsp90α): 18.8 °C

Molecule: AMPPSP
- Kd (Human TRAP-1): 109000 nM
